The results in this text go back to US9302993B2, “8-hydroxy quinoline derivatives” (PRANA BIOTECHNOLOGY LIMITED, priority 2002, dated 2016).

For series [1], the system named is Neuronal cortical cells. The series is described as follows: Assay for test compound cytoxicity, MTS (Assay 3(d)). The following applies: BL6J×129sv, mouse, 4 days. The format is cell-based, mouse.
Series [2] has as its system Neuronal cortical cells treated with Aβ1-42. The series is described as follows: Assay for Aβ neurotoxicity and Aβ neuroprotection (Assay 3(c)). The format is cell-based, mouse. The following applies: 20 uM Aβ1-42, 4 days, MTS.
The subject of series [3] is APP2576 transgenic mouse. The series is described as follows: Transgenic mouse brain immunohistochemistry, plaque abundance (Assay 15). It counts as in vivo. The following applies: for % difference from control (sham treated animal): plaque score; for Mean plaque score: scale 0 to 4. From the text: Assay 15. Transgenic Mouse Brain Immunohistochemistry
The APP2576 transgenic mouse (Hsiao et al., 1996) as referred to in Assay 11 were utilized in this assay. The contralateral formalin-fixed mouse brain tissue was coronally cut. Sections (10 μm) were taken from the corresponding sites and treated with 80% formic acid for antigen retrieval. The primary antibody used was monoclonal antibody 1E8, which recognizes epitopes between residues 18 and 22 of Aβ (SmithKline Beecham, UK). Immunoreactivity was developed with secondary antibody linked to horseradish peroxidase (using a 3,39-diaminobenzidinechromagen) (Dako) and alkaline phosphatase (using 5-bromo-4-chloro 3-indoxyl phosphate and nitroblue tetrazolium chloride chromagen) (Dako). Plaque abundance per section was assessed by two operators blinded to treatment according to the following scale:
1=plaques present but very sparse
2=several plaques present
3=numerous plaques visible in restricted areas
4=plaques abundant and not restricted to any particular area.
Intermediate values eg 2.5 were assigned where applicable.
Students' t ‘test was used for comparisons between groups.

Series [4] has as its system Aβ in extract of tissue from post mortem human AD brain. Briefly: Human brain amyloid solubilisation assay (Assay 9, BAS). It counts as biochemical. The following applies: solubilising plaques relative to PBS. In short, it runs like this:
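Plaque-bearing post mortem AD cortex homogenised in ice-cold PBS pH 7.4 and spun 100,000×g, 30 min to separate PBS-soluble supernatant from insoluble pellet. Aβ in each fraction resolved on Tris-Tricine 10-20% gels, immunoblotted with W02 antibody and ECL, quantified by densitometry against synthetic Aβ40 standards (0.5, 1, 2 ng).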

Series [5] relates to APP2576 transgenic mouse. The series is described as follows: Effect of administration of test compounds on Aβ deposits in transgenic animals (Assay 11). The arrangement: concentration or dose not given beside the values. It counts as in vivo. The following applies: transgenic mouse brains; for Insoluble fraction. % change compared with control.: insoluble Aβ; for Soluble fraction. % change compared with control.: soluble Aβ.

Turning to `Cn1cnc(CCNC(=O)c2ccc3c(Cl)cc(Cl)c(O)c3n2)c1` [compound 1050, 5,7-dichloro-8-hydroxyquinoline-2-carboxylic acid [2-(1-methyl-1H-imidazol-4-yl)-ethyl]-amide], in series [1], the “Test Compound Cytoxicity 1 uM” value turned out to be 93 and the “Test Compound Cytoxicity 10 uM” value was found to be 88. The “% inhibition Abeta toxicity” value in series [2] is on record as 6%.
As for `CCNCc1ccc2c(Cl)cc(Cl)c(O)c2n1.Cl` [compound 1051, 5,7-dichloro-2-ethylaminomethyl-quinolin-8-ol hydrochloride], in series [3], the “% difference from control (sham treated animal)” value (“% difference from control” for short) is −39% and the Mean plaque score is recorded as 2.13. In series [1], the “Test Compound Cytoxicity 1 uM” value is 87 and the “Test Compound Cytoxicity 10 uM” value is 56. Further, in series [4], the “BAS Score” value is “+”. Also, the “% inhibition Abeta toxicity” value in series [2] came to 23%. For the same compound, in series [5], the “Insoluble fraction. % change compared with control.” value (from here on “Insoluble fraction. % change”) is recorded as −21% and the “Soluble fraction. % change compared with control.” value was “negligible”.
Regarding `CN(C)Cc1ccc2c(Cl)cc(Cl)c(O)c2n1.Cl` [compound 1033, 5,7-Dichloro-2-dimethylaminomethyl-quinolin-8-ol hydrochloride], in series [3], the “% difference from control” value was −41% and the Mean plaque score is recorded as 2.06. In addition, in series [1], the “Test Compound Cytoxicity 1 uM” value is reported as 80 and the “Test Compound Cytoxicity 10 uM” value is 70. In addition, in series [4], the “BAS Score” value is “+”. For the same compound, the “% inhibition Abeta toxicity” value in series [2] is 38%. In addition, in series [5], the “Insoluble fraction. % change” value is on record as −29% and the “Soluble fraction. % change compared with control.” value was −37%.
Consider `O=C(NCCc1c[nH]cn1)c1ccc2c(Cl)cc(Cl)c(O)c2n1` [compound 1038, 5,7-Dichloro-8-hydroxyquinoline-2-carboxylic acid [2-(1H-imidazol-4-yl)-ethyl]-amide], for which, in series [3], the “% difference from control” value is recorded as −17% and the Mean plaque score is given as 3.0. Moreover, in series [1], the “Test Compound Cytoxicity 1 uM” value is 93 and the “Test Compound Cytoxicity 10 uM” value was 83. For the same compound, in series [4], the “BAS Score” value is “+”. Moreover, the “% inhibition Abeta toxicity” value in series [2] was 19%. In series [5], the “Insoluble fraction. % change” value is listed as −37% and the “Soluble fraction. % change compared with control.” value is on record as “negligible”.
